Test results as given in PMC5787524, “Discovery of a FLT3 inhibitor LDD1937 as an anti-leukemic agent for acute myeloid leukemia” (Oncotarget, 2017).
Values joined by “and” are separate entries in the source; they are usually repeats but may differ in a detail not shown here. Equal entries are not always repeated. “Also recorded” adds a separate entry of the source. Where two headings read alike, the source gives them in different places.

Assays:
[1] = test system: Jurkat cells; assay: Cell viability / growth inhibition (EZ-Cytox), Jurkat; assay type: cell-based; settings: Homo sapiens, Table 2, 72 h
Method: (§1) MV-4-11 human acute myeloid leukemia cells were purchased from the American Type Culture Collection (ATCC, Rockville, MD, USA, CRL-9591), and the cells were cultured in IMDM medium (Sigma Co., St. Louis, MO, USA) supplemented with 10% fetal bovine serum, 1% penicillin/streptomycin and 4 mM L-glutamine (Life Technology, Grand Island, NY). Jurkat (human acute T lymphocytic leukemia, ATCC TIB-152) and K562 (human chronic myelogenous leukemia, ATCC CCL-243) cells were cultured in RPMI-1640 (Sigma Co.), and MCF7 (human breast adenocarcinoma, ATCC HTB-22) and PC-3 (human prostate adenocarcinoma, ATCC CRL-1435) cells were cultured in DMEM (Sigma Co.) medium supplemented with 10% fetal bovine serum and 1% penicillin/streptomycin. The cultured cells were incubated at 37°C with 5% CO2. Cell viability was assessed with a tetrazolium-based assay using the EZ-Cytox Cell Viability Assay kit (DaeilLab, Korea). Briefly, 2,000 ∼ 15,000 cells were plated in 96-well flat bottom plates in 100 µl of medium. The next day, the cells were treated with compounds along with dimethyl sulfoxide (DMSO, Fisher, Waltham, MA, USA) as a negative control. […] After incubation, the optical density (OD) was measured at a wavelength of 450 nm with a Victor multilabel reader (Perkin Elmer, Waltham, MA, USA). The IC50 was calculated with nonlinear regression using Prism version 5.01 (GraphPad, La Jolla, CA, USA).

[2] = test system: leukemic cells; assay: Differentiation of leukemic cells (Wright-Giemsa staining); assay type: cell-based; settings: data not shown
[3] = test system: MV-4-11 cells; assay: Cell viability / growth inhibition (EZ-Cytox), MV-4-11; assay type: cell-based, human; settings: for GI50: Homo sapiens, MV4-11, 72 h
Method: The cultured cells were incubated at 37°C with 5% CO2. Cell viability was assessed with a tetrazolium-based assay using the EZ-Cytox Cell Viability Assay kit (DaeilLab, Korea). Briefly, 2,000 ∼ 15,000 cells were plated in 96-well flat bottom plates in 100 µl of medium. The next day, the cells were treated with compounds along with dimethyl sulfoxide (DMSO, Fisher, Waltham, MA, USA) as a negative control. […] After incubation, the optical density (OD) was measured at a wavelength of 450 nm with a Victor multilabel reader (Perkin Elmer, Waltham, MA, USA).

[4] = test system: K562 cells; assay: Cell viability / growth inhibition (EZ-Cytox), K562; assay type: cell-based; settings: Homo sapiens, Table 2, 72 h
Method: as §1

[5] = Pharmacokinetics in mice (intravenous and oral); assay type: in vivo, ICR mice; settings: for AUC: read-out: AUC (converted); for half-life: read-out: Terminal half-life
Method: The protocols for the animal studies were approved by the Institute of Laboratory Animal Resources of Dongguk University, Seoul, South Korea (IACUC-2015-055-1). Five-week-old male Imprinting Control Region (ICR) mice were purchased from the Charles River Company Korea (Orient, Seoul, South Korea). Upon arrival, the animals were randomized and housed four per cage under strictly controlled environmental conditions (22-25°C and 48-52% relative humidity) with a 12 h light/dark cycle at an intensity of 150 to 300 Lux. All mice were provided food and water ad libitum and were then maintained during this study. In the intravenous study of LDD1937, 10 mg/kg of LDD1937 (dissolved in distilled water at a concentration of 2 mg/ml) were intravenously injected into the mice through the tail vein. A blood sample of approximately 0.12 ml was collected by cardiac puncture. Additionally, in the oral study of LDD1937, 10 mg/kg of LDD1937 (dissolved in the same solution used in the intravenous study) were orally administered to the mice. The analysis of LDD1937 and LDD1940, a metabolite of LDD1937, in biological samples was done with LC-MS/MS using the Waters UPLC-XEVO TQ system (Waters Corporation, Milford, CT, USA). […]1940, and carbamazepine (an internal standard, IS) were ionized in the multiple reaction monitoring mode with an ESI interface for positive ions ([M+H]^+). The turbo ion-spray interface was operated at an ion capillary voltage of 3.0 kV with a desolvation gas flow of 650 l/h and a cone gas flow of 10 l/h at 350°C. […] Separation was done on a reverse-phase C18 column (BEH, […]; Waters, Ireland) with a mobile phase, distilled water containing 0.1% formic acid and acetonitrile, at 30°C. After measuring the concentrations of the LDD1937 and LDD1940, standard methods were used to calculate the pharmacokinetic parameters using a non-compartmental analysis (WinNonlin 2.1; […] Corp., Mountain View, CA, USA).

[6] = test system: MCF-7 cells; assay: Cell viability / growth inhibition (EZ-Cytox), MCF-7; assay type: cell-based; settings: Homo sapiens, MCF7; Table 2, 72 h
Method: as §1

[7] = test system: MV-4-11 xenograft; assay: MV-4-11 mouse tumor xenograft; assay type: in vivo, BALB/c nu/nu mice
Method: MV-4-11 cells were inoculated subcutaneously in the flank of female BALB/c nu/nu (athymic nude) mice (5 × 10^6 cells per mouse). […] The drug or the control PBS was administered daily for a duration of 21 days. Tumor sizes were measured twice a week for 21 days, and the tumor volumes were calculated with the following formula: V (volume) = X (length) × D (width)^2/2. After 21 days, the mice were sacrificed, and the tumor weights were measured.

[8] = LDD1937, mice, 10 mg/kg intravenous
[9] = male, ICR, mouse, plasma, LDD1937, mice, 10 mg/kg intravenous
[10] = male, ICR, mouse, plasma, LDD1937, mice, 10 mg/kg oral

CLNR [5, 8]: 83.6 ± 9.81 mL/min/kg
GI24 h (total amount recovered from the gastrointestinal tract at 24 h) [5, 8]: 0.336 ± 0.0235 % of dose
Ae0–24 h ([5]; LDD1937, mice, 10 mg/kg oral): 0.213 ± 0.0163 % of dose
GI24 h ([5]; LDD1937, mice, 10 mg/kg oral, 10 mg/kg): 1.67 % of dose and 1.67 ± 1.92 % of dose
concentration at 10 h ([5]; male, ICR, mouse, plasma, 10 h after 10 mg/kg intravenous dosing, mice, read-out: plasma level): 30 ng/mL
MRT [5, 9]: 2.77 h
clearance [5, 9]: 83.6 ± 9.81 mL/min/kg
AUC [5, 9]: 2000 ng·h/mL
half-life [5, 9]: 2.9 ± 0.47 h
Vd ([5]; male, ICR, mouse, plasma, LDD1937, mice, 10 mg/kg intravenous, read-out: Vss): 14.1 ± 4.31 L/kg
bioavailability [5, 10]: 1.43%
AUC [5, 10]: 29.8 ng·h/mL
Cmax ([5]; male, ICR, mouse, plasma, LDD1937, mice, 10 mg/kg oral, read-out: Cmax): 23.3 ± 26.2 ng/mL
half-life [5, 10]: 1.72 ± 0.542 h
Tmax ([5]; male, ICR, mouse, plasma, LDD1937, mice, 10 mg/kg oral, read-out: Tmax (converted)): 0.5 h
plasma concentration reached ([5]; single dose 10 mg/kg intravenous, mice): 2700 ng/mL
Structure (SMILES): COC(=O)c1ccc2c(c1)/C(=C1/Nc3ccccc3/C1=N\OCCN1CCNCC1)C(=O)N2.Cl.Cl [LDD1937, methyl (2Z,3E)-2′-oxo-3-((2-(piperazin-1-yl)ethoxy)imino)-[2,3′-biindolinylidene]-5′-carboxylate dihydrochloride]
GI50 [1]: 1.44 ± 0.29 µM
differentiated cells (Wright-Giemsa staining) [2]: differentiated cells were not observed
enhancement of MV-4-11 activity compared to the initial compound 1 [3]: 40 fold
GI50 ([3]; 72 h, called IC50 in supplementary text): 0.001 ± 0.00015 µM
GI50 ([3]; Table 2, 72 h, mean ± S.D.): 0.0012 ± 0.0002 µM
GI50 [4]: 1.21 ± 0.33 µM
Ae0–24 h (total amount excreted in 24-h urine) ([5]; LDD1937, mice, 10 mg/kg intravenous, 10 mg/kg): 0.283 % of dose and 0.283 ± 0.0252 % of dose
GI50 [6]: 2.14 ± 0.16 µM
tumor weight ([7]; 5 mg/kg intravenous daily, day 21, vs control): significant reduction
tumor volume / tumor mass ([7]; 10 mg/kg intravenous daily for 21 days): the tumor disappeared from day 3; also recorded: completely disappear from day 3
body weight ([7]; 5 and 10 mg/kg intravenous daily, administration period, between groups): no significant difference in body weight
tumor volume and weight ([7]; 5 and 10 mg/kg intravenous, vs control): significantly reduced
